In patent US11752125B2, “Anti-neuroinflammatory and protective compounds in Achillea fragrantissima” (THE STATE OF ISRAEL MINISTRY OF AGRICULTURE & RURAL …, priority 2013, dated 2023):

Assays:
[1] = system: IL-1β; assay: IL-1β transcripts in LPS-stimulated microglial cells (real-time PCR); type: cell-based, rat; settings: 20 μg/mL; LPS 4.5 ng/mL, 5 h
Experimental: (§1) RNA was extracted by the RNeasy Plus Mini Kit (Qiagen, Hilden, Germany) according to the manufacturer's instructions. Genomic DNA was removed from the RNA samples by using 50 units of RNase-free DNaseI at 37° C. for 1 h. RNA ([…]) was converted to cDNA using the Thermo Scientific Verso cDNA kit (Thermo Fisher Scientific Inc) following the manufacturer's protocol. The cDNA was used for quantitative real-time PCR amplification with TaqMan chemistry (Applied Biosystems) using Rat MMP9, TNFα, IL1β, iNOS, COX2 pre-designed TaqMan Gene Expression Assay from Applied Biosystems (Rn00579162_m1, Rn00562055_m1, Rn00580432_m1, Rn00561646_m1, Rn01483828_m1, respectively). […] All results from three technical replicates were normalized relative to α-Tubulin (Rn01532518.g1) and GAPDH (Rn01775763.g1), respectively, and expressed as relative expression ratios calculated (relative quantity, RQ) using the comparative method and based on the data that were created by the ABI PRISM 7700 Sequence Detection System (using version 1.6 software).
(§2) Procedure 23. Measurement of IL-1Beta, TNFalpha, iNOS, COX-2 and MMP-9 Transcripts in LPS-Activated Microglial Cells by Quantitative Real-Time PCR Analysis. • 1. […]
(§3) Microglial cells were treated with 20 μg/mL of achillolide A, followed by stimulation with LPS (4.5 ng/mL). […] The results are expressed as percentages relative to LPS-stimulated cells. […]

[2] = system: glutamate; assay: Glutamate secretion from LPS-activated microglial cells; type: cell-based, rat; settings: LPS 100 ng/mL, 20 h
Experimental: For glutamate measurements, 3.5×10^4 cells/well were plated on a 24-well tissue culture plate. After 24 h of incubation in DMEM containing 10% FBS, cells were stimulated with LPS (100 ng/mL) and treated with different concentrations of achillolide A. Conditioned media were collected twenty hours later, and were tested for glutamate levels using a colorimetric enzymatic assay kit (glutamate assay kit, BioVision, CA, USA) according to the manufacturer's instructions. 7. Measure the levels of glutamate using a colorimetric enzymatic assay kit (glutamate assay kit, BioVision, CA, USA) according to the manufacturer's instructions. Microglial cells were treated with the indicated concentrations of achillolide A, followed by stimulation with LPS (100 ng/mL). After 20 h, conditioned media were collected and tested for glutamate levels by a commercial kit. Values represent the means±SEM (n=4 for each treatment). ** p<0.01; *** p<0.001, compared to LPS-stimulated cells.

[3] = system: TNFα; assay: TNFα transcripts in LPS-stimulated microglial cells (real-time PCR); type: cell-based, rat; settings: 20 μg/mL; LPS 4.5 ng/mL, 5 h
Experimental: as §1, §2, §3

[4] = system: MEK1; assay: SNP-induced MEK1 phosphorylation in N2a cells (ELISA); type: cell-based; settings: concomitant treatment 40 min, total protein not affected
Experimental: N2a cells were treated concomitantly with SNP and TTF for 40 min. Cells were extracted and the levels of phosphorylated or total MEK1 were determined by specific ELISA kits. The results are shown in FIG. 20 are the mean±SEM of two different experiments […].

[5] = system: astrocytes; assay: Cytotoxicity of the compound by itself to astrocytes (LDH); type: cell-based; settings: all concentrations tested, 20 h
Experimental: Astrocytes were re-plated at 24-well poly-D-lysine-coated plastic plates at a density of 1×10^5/well, in DMEM w/o Phenol Red containing 2% FBS, 2 mM glutamine, 100 U/mL penicillin, and 100 μg/mL streptomycin. H2O2 in the presence or absence of TTF were added, and cell viability was determined using a commercial colorimetric assay (Roche Applied Science, Germany) according to the manufacturer's instructions. This assay is based on the measurement of lactate dehydrogenase (LDH) activity released from the cytosol of damaged cells into the incubation medium. The absorbance was measured at 492 nm in a plate reader. The percentage of cytotoxicity was calculated according to the following equation, where the “ATriton-x treated cells” is the maximum releasable LDH in the cells:
Astrocytes were treated with different concentrations of TTF and cell death was determined 20 h later by the LDH method. The results are means±SEM of two experiments (n=10) and are shown in FIG. 2C. ***P<0.001, compared to untreated cells.

SMILES	effect on LPS-induced IL-1β transcript levels [1]	inhibition of the LPS-induced levels of secreted glutamate [2] [%]	effect on LPS-induced TNFα transcript levels [3]	effect on SNP-induced phosphorylation of MEK1 [4]	cytotoxicity of the flavonoid by itself to astrocytes [5] [%]
C=C1CCC2=C(CO)C(=O)O[C@H]2/C=C(\C)[C@H](OC(C)=O)CC1=O [achillolide A]	significantly inhibited	80	significantly inhibited	–	–
COc1cc(-c2oc3cc(OC)c(OC)c(O)c3c(=O)c2O)ccc1O [TTF, 3,5,4′-trihydroxy-6,7,3′-trimethoxyflavone]	–	–	–	significantly inhibited	< 11
